These results are taken from patent US12290496B2, “Compounds for use in preventing or treating athlete overtraining” (TDELTAS LIMITED, priority 2018, dated 2025).

Series [1] is described as follows: Circulating (R)-3-hydroxybutyrate levels and gut uptake after consumption of esters. The series is classed as in vivo.
Series [2] in a line: 30-minute simulated cycling time trial (TT30min) performance (FIG. 2). The series is classed as in vivo, human. The procedure: (§1) A randomized placebo-controlled (ketone ester versus placebo) intervention study was performed. The study involved a pretest and a posttest with a 3-week training overload period in between (Table 1A). During this 3-week period, subjects received either ketone ester or an isocaloric placebo (long chain triglyceride) after each training session and 30 minutes before sleep. The conditions were blinded to both the subjects and the investigators until completion of all the experiments.
Three weeks prior to the start of the study, subjects underwent a sport medical screening by a certified sports physician. One week later, the subjects participated in three familiarization sessions (Table 1B) to get familiar with the experimental procedures. […] Respiratory gas exchange was measured continuously during the test (Cortex Metalyzer II, Leipzig, Germany), and the highest oxygen uptake measured over a 30-s period defined as the maximal oxygen uptake (VO2max). […]
For the first experimental session, after a 10-min warming up (5 min at 100 W, plus 5 min at 150 W), the subjects performed a TT30min. […] Immediately after completion of the TT, subjects (1) scored the rate of perceived exertion on a 15-point Borg scale and completed a gastrointestinal symptom questionnaire. […]

The test system of the next series is noradrenaline. As to the kind of experiment: Urinary total nocturnal noradrenaline excretion (FIG. 9b). The series is classed as in vivo, human. Particulars: before and during 3-week overreaching/overtraining period; consistently elevated in placebo. The procedure: as §1
(§2) Immediately following each training session and 30 min before sleep, subjects received a recovery drink (6D Recovery Shake, Medix, Oudenaarde, Belgium) containing 1 g carbohydrates per kg body weight, plus 0.35 g whey protein isolate per kg body weight. Additionally, subjects received 0.35 g per kg body weight of a ketone ester drink or an isocaloric placebo (PL; long chain triglycerides) as a separate drink to be ingested together with the carbohydrate/protein recovery drink. The ketone ester supplement (ΔG®) delivered pure D-β-hydroxybutyrate-R 1,3 butanediol monoester. These nutritional supplements have been extensively tested before (see for instance Cox et al; Cell Metab 24: 256-268, 2016).
Total nocturnal urine (10 pm to 8 am) was collected during the night before each experimental session in flasks prepared with 10 ml hydrochloric acid. […]

The nature of series [3]: Blood ketone (β-hydroxybutyrate) levels during 3-week training overload study (FIG. 1). The series is classed as in vivo, human. The conditions noted are these: 30 minutes following ingestion; days 6, 13 and 20. The protocol: as §1
Immediately following each training session and 30 min before sleep, subjects received a recovery drink (6D Recovery Shake, Medix, Oudenaarde, Belgium) containing 1 g carbohydrates per kg body weight, plus 0.35 g whey protein isolate per kg body weight. Additionally, subjects received 0.35 g per kg body weight of a ketone ester drink or an isocaloric placebo (PL; long chain triglycerides) as a separate drink to be ingested together with the carbohydrate/protein recovery drink. […]
Furthermore, during TT30min small capillary blood samples (5 μl) were collected at 5-min time intervals via a small puncture in the earlobe. These microsamples were immediately analyzed for blood lactate concentration (Lactate Pro®, Arkray, Kyoto, Japan), blood glucose and βHB levels (GlucoMen Lx plus-meter with Lx glucose or Lx β-ketone strips, Menarini Diagnostics, Firenze, Italy). […]

Series [4] is described as follows: Peak heart rate during 90 second all-out isokinetic sprint (FIG. 4). The conditions noted are these: 90 second all-out isokinetic sprints, 3-week training overload period. The series is classed as in vivo, human. The procedure: as §1, §2
FIG. 4A gives the absolute values, and FIG. 4B gives the decrease in heart rate (Δ) from the pre-test values. […]

Series [5] can be described thus: Submaximal heart rate during first 5 minutes of 30-min time trial (FIG. 5). The series is classed as in vivo, human. Particulars: 3-week training overload period. The procedure:
as §1
For the first experimental session, after a 10-min warming up (5 min at 100 W, plus 5 min at 150 W), the subjects performed a TT30min. During the first 5 minutes (t0-t5), the workload was set equal to the mean power output achieved during the TT30min in the last familiarization session. From t5 to t25, the subjects adjusted the workload at 5-min intervals according to their subjective perception of fatigue. From t25 to t30, 1-min adjustments were allowed so as to be able to establish full exhaustion by the end of the TT. Immediately after completion of the TT, subjects (1) scored the rate of perceived exertion on a 15-point Borg scale and completed a gastrointestinal symptom questionnaire. Following 15 min of active recovery (cycling @ 50 W), subjects performed a W30s. One day later, the subjects returned to the laboratory for the second experimental session. During this session a VO2max test was performed. […]

The conditions of series [6]: acute ingestion, elite cyclists; cited from earlier work.
The nature of series [7]: 30-minute time trial after 2 h submaximal constant-load exercise bout, day 18 (FIG. 3). The series is classed as in vivo, human. The protocol:
as §1, §2
FIG. 3 illustrates the 30 minute time trial performance results at the end of a 120 minute constant-load endurance training session at day 18 of the training period. […]

Series [8] is described as follows: DXA scanning before and after 3-week training period (FIG. 6). The series is classed as in vivo, human. The conditions noted are these: 3-week training overload period. The procedure:
as §1, §2

Series [9] in a line: Training volume / work per week and per session (FIG. 10, 11). The series is classed as in vivo, human. The procedure:
Following the pre-test, participants were enrolled in a 3-week supervised and fully-controlled exercise training program. Each week of the training program consisted of six training days with an interval training in the morning and an endurance training in the evening, for a total of twelve training sessions per week (Table 2).
The number of maximal sprints in the HIIT sessions increased from 4 in week 1, to 5 in week 2 and 6 in the final week. Endurance sessions were performed in the evening and consisted of 150 min of cycling at 65% VO2max. During the 3-week training period the subjects abstained from any exercise other than the exercise prescribed by the study protocol.
as §2

Series [10] can be described thus: Food (energy) intake during 3-week training period (FIG. 7). The conditions noted are these: placebo energy intake stable. The series is classed as in vivo, human. The procedure: as §1, §2
The next series relates to leptin. In words: Leptin levels in fasted plasma samples (FIG. 8). The series is classed as in vivo, human. The procedure:
as §1, §2
Blood samples (2×5 ml) were taken from an arm vein by use of the Venoject® system into BD Vacutainer® tubes. […]

Consider `C[C@@H](O)CCOC(=O)C[C@@H](C)O` [ketone ester, (R)-3-hydroxybutyl (R)-3-hydroxybutyrate], for which, in series [1] (in vivo), the “circulating levels of (R)-3-hydroxybutyrate in the blood” value is “high circulating levels” and the “level of uptake in the gut” value is on record as “surprisingly high level of uptake”. The “increase in power output from pre-test” value in series [2] (following 1 week of tapering after 3-week training overload period, not increased in placebo group) is about 8%. Further, the “average power during 30 minute time trial versus placebo” value in series [2] (post-test and follow-up 1) was “significantly higher”. Also, the “urinary total nocturnal noradrenaline excretion” value with noradrenaline is “stable at baseline levels”. Further, the “blood β-hydroxybutyrate levels versus placebo drink” value in series [3] is reported as “significantly higher”. The “decline in maximum (peak) heart rate from pre-test, versus placebo” value in series [4] is “significantly less”. Besides, the “decline in submaximal heart rate vs. pre-test, versus placebo” value in series [5] is “significantly less”. Further, in series [6], the endurance performance entry is “improve endurance performance”. In addition, the “increase in mean power output compared with placebo drink” value in [7] (day 18 of training period) is about 15%. Further, in [7] (end of 120 minute constant-load endurance session, day 18), the “average power in 30 minute time trial versus placebo group” value is given as “significantly higher”. Moreover, in series [8], the “bone mineral content in post-test compared to placebo” value was “increased bone mineral content”, the “changes in body fat compared with placebo” value is recorded as “did not alter” and the “changes in lean body mass compared with placebo” value is reported as “did not alter”. Moreover, the “workload effected during each single training session versus placebo” value in [9] (from day 20) is “higher”. The “training load versus placebo” value in series [9] (week 3) was “definitely higher”. The “training load versus placebo” value in series [9] (weeks 1 and 2) was “no difference”. For the same compound, in series [10], the “daily energy intake from week 1 to week 3” value is listed as “spontaneously increased”. In the series on leptin (all timepoints after the pretest), the “leptin levels compared to placebo” value was “higher at all timepoints”. Also, the “leptin levels from pretest to posttest” value in the series with leptin (significantly dropped in placebo group) was “constant”.

Consider “(R)-3-hydroxybutyrate-glycerol partial ester”, for which, in series [1] (upon consumption of a drink), the “circulating levels of (R)-3-hydroxybutyrate in the blood” value is on record as “high circulating levels” and the “level of uptake in the gut” value is on record as “surprisingly high level of uptake”.
